2 molecules from EP2276483B1, “SOLID FORMS COMPRISING (+)-2-[1-(3-ETHOXY-4-METHOXYPHENYL)-2-METHYLSULFONYLETHYL]-4-ACETYLAMINOISOINDOLINE-1,3-DIONE, COMPOSITIONS THEREOF, AND USES THEREOF” (CELGENE CORPORATION, priority 2008, dated 2009) can be followed below.

Series [1] has as its target T1, PDE5 from human platelets (Homo sapiens, UniProt O76074).
T1 construct: PDE5 from human platelets; from tissue; host or cells: human platelets
The series is described as follows: PDE5 enzyme assay. Type of series: biochemical. The settings on record: for PDE Specificity Ratio PDE4/PDE5: from above data.

Series [2] concerns PDE4 (from U937 cells). The series is described as follows: PDE4 (U937 cell-derived) enzyme assay. Type of series: biochemical, human. The settings on record: 1 µM cAMP. The method, then: PDE4 enzyme was purified from U937 human monocytic cells by gel filtration chromatography as previously described (Muller et al., 1998, Bioorg. & Med. Chem. Lett. 8:2669-2674). Phosphodiesterase reactions were carried out in 50 mM Tris HCl pH 7.5, 5 mM MgCl2, 1 µM cAMP, 10 nM [^3H]-cAMP for 30 min at 30°C, terminated by boiling, treated with 1 mg/ml snake venom, and separated using AG-1XS ion exchange resin (BioRad) as described (Muller et al., 1998, Bioorg. & Med. Chem. Lett. 8:2669-2674). Reactions consumed less than 15% of available substrate. Table 1. PDE Specificity

The test system of series [3] is cAMP. As to the kind of experiment: PGE2-induced cAMP elevation in human neutrophils. Format: cell-based. The note with it: Neutrophil. The method, then:
(§1) Prostaglandin E2 (PGE2) binds to prostanoid receptors on monocytes, T cells and other leukocytes and consequently elevates intracellular cAMP levels, resulting in inhibition of cellular responses. The combination of PGE2 and a PDE4 inhibitor synergistically elevates cAMP levels in these cell types, and the elevation of cAMP in PBMC caused by PDE4 inhibitors in the presence of PGE2 is proportional to the inhibitory activity of that PDE4 inhibitor. Intracellular cAMP was measured in human PBMC as follows. PBMC were isolated as described above and plated in 96-well plates at 1 x 10^6 cells per well in RPMI-1640. The cells were pre-treated with compounds at 100, 10, 1, 0.1, 0.01, and 0 µM in a final concentration of 2% DMSO in duplicate at 37°C in a humidified incubator at 5% CO2 for one hour. The cells were then stimulated with PGE2 (10µM) (Sigma) for 1h. The cells were lysed with HCl, 0.1 N final concentration to inhibit phosphodiesterase activity and the plates were frozen at -20°C. The cAMP produced was measured using cAMP (low pH) Immunoassay kit (R&D Systems).
Elevation of cAMP in human neutrophils was measured as follows. PBMC were removed from source leukocytes (Sera-Tec Biologicals) by centrifugation on Ficoll-Paque Plus (Amersham Pharmacia). […]

Series [4] in a line: Aqueous equilibrium solubility in pH 7.4 buffer. Format: physicochemical. The note with it: thermodynamic from solid; pH 7.4 aqueous buffer, room temperature; read-out: Measured solubility. The method, then: Equilibrium solubilities were measured in pH 7.4 aqueous buffer. The pH 7.4 buffer was prepared by adjusting the pH of a 0.07 M NaH2PO4 solution to 7.4 with 10 N NaOH. The ionic strength of the solution was 0.15. At least 1 mg of powder was combined with 1 ml of buffer to make >1 mg/ml mixture. These samples were shaken for >2 hours and left to stand overnight at room temperature. The samples were then filtered through a 0.45-µm Nylon syringe filter that was first saturated with the sample. The filtrate was sampled twice, consecutively. The filtrate was assayed by HPLC against standards prepared in 50% methanol.

Series [5] has as its system LTB4. The series is described as follows: fMLF-induced LTB4 production in neutrophils. The note with it: Neutrophil; human neutrophils; 1 µM fMLF. Format: cell-based. The method, then:
N-formyl-methionine-leucine-phenylalanine (fMLF) is a bacterially derived peptide that activates neutrophils to rapidly degranulate, migrate, adhere to endothelial cells, and release leukotriene LTB4, a product of arachidonic acid metabolism and itself a neutrophil chemoattractant. Compounds were tested for the ability to block fMLF-induced neutrophil LTB4 production as previously described (Hatzelmann and Schudt, 2001, J. Pharm. Exp. Ther., 297:267-279), with the following modifications. Neutrophils were isolated as described above and resuspended in phosphate-buffered saline without calcium or magnesium (BioWhittaker) containing 10 mM HEPES pH 7.2 and plated in 96-well tissue culture plates at a concentration of 1.7 x 10^6 cells/well. Cells were treated with 50 µM thimerosal (Sigma)/1 mM CaCl2/1 mM MgCl2 for 15 minutes at 37°C 5% CO2, then treated with compounds at 1000, 200, 40, 8, 1.6, 0.32, 0.064, and 0 nM in a final DMSO concentration of 0.01 % in duplicate for 10 minutes. Neutrophils were stimulated with 1 µM fMLF for 30 minutes, then lysed by the addition of methanol (20% final concentration) and frozen in a dry ice/isopropanol bath for 10 minutes. Lysates were stored at -70°C until the LTB4 content was measured by competitive LTB4 ELISA (R&D Systems).

Series [6] has as its target PDE7 purified from Hut78 human T cells (Homo sapiens, UniProt Q13946). The series is described as follows: PDE7 enzyme assay. Format: biochemical. The method, then:
PDE7 is a cAMP-selective PDE expressed mainly in T cells and in skeletal muscle. T cell-derived cytokines such as IL-2 and IFN-γ are potentially regulatable via PDE7 inhibition. […] Compounds were tested against the PDE7 preparation in the presence of 10 nM cAMP as described for PDE4 in Table 1.

The target in series [7] is human PDE2 (Homo sapiens, UniProt O00408). As to the kind of experiment: PDE2 enzyme assay. Format: biochemical. The note with it: for PDE Specificity Ratio PDE4/PDE2: from above data.
human PDE2, sequence (O00408 whole entry): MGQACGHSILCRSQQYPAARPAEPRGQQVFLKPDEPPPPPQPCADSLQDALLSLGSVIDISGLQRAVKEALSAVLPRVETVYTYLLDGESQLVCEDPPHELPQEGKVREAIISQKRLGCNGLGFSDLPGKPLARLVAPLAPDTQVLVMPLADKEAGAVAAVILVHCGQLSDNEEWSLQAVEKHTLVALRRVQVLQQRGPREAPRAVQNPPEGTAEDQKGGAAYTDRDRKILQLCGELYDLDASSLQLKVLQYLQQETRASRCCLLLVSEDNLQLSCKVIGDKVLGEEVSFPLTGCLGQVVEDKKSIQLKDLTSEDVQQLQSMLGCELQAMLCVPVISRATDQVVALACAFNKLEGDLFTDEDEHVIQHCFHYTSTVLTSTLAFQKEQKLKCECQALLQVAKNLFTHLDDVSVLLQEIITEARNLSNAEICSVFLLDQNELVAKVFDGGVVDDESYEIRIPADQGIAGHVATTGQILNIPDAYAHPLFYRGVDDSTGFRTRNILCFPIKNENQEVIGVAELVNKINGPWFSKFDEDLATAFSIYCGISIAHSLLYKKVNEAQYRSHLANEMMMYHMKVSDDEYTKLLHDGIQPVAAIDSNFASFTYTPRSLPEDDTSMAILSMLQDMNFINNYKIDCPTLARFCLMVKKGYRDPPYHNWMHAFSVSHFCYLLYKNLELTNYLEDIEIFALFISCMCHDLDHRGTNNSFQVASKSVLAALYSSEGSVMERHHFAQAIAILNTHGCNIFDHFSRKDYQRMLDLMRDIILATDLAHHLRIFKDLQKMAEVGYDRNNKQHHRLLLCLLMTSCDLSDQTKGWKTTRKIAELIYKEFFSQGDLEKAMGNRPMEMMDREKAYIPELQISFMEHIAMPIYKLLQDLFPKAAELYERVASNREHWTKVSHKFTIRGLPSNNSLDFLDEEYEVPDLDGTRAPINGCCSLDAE
The test system of series [8] is bovine PDE1. As to the kind of experiment: PDE1 enzyme assay. Format: biochemical. The settings on record: for PDE Specificity Ratio PDE4/PDE1: from above data.
The target in series [9] is PDE3 from human platelets (Homo sapiens, UniProt Q14432). The series is described as follows: PDE3 enzyme assay. Format: biochemical. The note with it: for PDE Specificity Ratio PDE4/PDE3: from above data.
PDE3 from human platelets, sequence (Q14432 whole entry): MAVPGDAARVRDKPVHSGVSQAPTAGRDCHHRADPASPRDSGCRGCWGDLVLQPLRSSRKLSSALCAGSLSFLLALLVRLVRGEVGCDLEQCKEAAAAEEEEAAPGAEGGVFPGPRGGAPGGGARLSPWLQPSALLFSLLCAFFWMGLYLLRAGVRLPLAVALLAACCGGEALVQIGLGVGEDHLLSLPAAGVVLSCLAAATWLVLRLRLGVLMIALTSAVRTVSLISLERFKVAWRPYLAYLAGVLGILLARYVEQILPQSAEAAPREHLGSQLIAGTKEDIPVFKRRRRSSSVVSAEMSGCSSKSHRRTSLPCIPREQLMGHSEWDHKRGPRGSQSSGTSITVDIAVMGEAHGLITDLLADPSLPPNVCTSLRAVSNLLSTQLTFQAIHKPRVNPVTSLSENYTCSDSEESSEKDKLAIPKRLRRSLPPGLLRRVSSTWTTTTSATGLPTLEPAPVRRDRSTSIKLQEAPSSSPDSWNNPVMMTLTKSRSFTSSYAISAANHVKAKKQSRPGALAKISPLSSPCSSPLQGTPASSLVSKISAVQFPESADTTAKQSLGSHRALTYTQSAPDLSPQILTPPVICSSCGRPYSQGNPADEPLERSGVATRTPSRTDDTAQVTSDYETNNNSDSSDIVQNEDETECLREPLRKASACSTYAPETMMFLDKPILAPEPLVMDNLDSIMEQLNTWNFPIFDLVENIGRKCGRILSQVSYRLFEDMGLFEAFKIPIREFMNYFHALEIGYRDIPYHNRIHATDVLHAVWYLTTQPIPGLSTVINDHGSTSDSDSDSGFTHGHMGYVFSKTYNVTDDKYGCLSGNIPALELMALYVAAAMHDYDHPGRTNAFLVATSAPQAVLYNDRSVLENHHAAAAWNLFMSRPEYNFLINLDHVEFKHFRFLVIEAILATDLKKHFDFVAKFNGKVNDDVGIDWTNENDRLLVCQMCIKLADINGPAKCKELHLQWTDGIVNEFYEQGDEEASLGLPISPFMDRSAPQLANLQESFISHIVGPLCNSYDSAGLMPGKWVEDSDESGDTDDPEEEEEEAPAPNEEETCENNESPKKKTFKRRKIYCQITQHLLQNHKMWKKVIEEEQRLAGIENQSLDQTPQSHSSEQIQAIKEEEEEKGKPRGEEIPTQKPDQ
In series [10] the test system is cAMP. The series is described as follows: PGE2-induced cAMP elevation in human PBMC. The note with it: PGE2 (10µM). Type of series: cell-based. The method, then: as §1
For series [11], the target named is T2, PDE6 from bovine retinal rod outer segments (Bos taurus, UniProt P11541+P23439).
T2 construct: PDE6 from bovine retinal rod outer segments; from tissue; host or cells: bovine retinal rod outer segments
T2 sequence (P11541 2-856 limits assumed): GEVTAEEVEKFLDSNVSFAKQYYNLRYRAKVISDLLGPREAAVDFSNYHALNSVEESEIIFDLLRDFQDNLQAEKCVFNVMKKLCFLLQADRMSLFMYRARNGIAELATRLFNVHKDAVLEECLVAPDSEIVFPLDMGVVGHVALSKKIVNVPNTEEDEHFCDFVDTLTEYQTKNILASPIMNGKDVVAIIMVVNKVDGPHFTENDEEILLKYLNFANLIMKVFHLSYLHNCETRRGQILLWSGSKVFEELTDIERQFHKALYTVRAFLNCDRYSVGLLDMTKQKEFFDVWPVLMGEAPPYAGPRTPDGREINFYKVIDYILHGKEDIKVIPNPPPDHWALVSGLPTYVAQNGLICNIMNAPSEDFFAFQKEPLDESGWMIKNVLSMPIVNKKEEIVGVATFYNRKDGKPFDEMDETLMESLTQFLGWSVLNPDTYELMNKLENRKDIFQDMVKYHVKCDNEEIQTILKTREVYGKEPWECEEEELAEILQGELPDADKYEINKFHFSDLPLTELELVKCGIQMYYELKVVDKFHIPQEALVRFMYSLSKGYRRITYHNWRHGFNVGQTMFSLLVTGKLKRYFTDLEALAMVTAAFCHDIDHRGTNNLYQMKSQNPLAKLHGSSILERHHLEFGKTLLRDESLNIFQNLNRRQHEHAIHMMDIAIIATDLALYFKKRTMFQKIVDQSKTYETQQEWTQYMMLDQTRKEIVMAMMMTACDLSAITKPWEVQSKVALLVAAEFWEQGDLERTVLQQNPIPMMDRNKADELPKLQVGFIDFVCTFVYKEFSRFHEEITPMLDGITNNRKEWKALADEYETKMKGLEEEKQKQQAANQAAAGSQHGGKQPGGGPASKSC
T2 sequence (P23439 2-850 limits assumed): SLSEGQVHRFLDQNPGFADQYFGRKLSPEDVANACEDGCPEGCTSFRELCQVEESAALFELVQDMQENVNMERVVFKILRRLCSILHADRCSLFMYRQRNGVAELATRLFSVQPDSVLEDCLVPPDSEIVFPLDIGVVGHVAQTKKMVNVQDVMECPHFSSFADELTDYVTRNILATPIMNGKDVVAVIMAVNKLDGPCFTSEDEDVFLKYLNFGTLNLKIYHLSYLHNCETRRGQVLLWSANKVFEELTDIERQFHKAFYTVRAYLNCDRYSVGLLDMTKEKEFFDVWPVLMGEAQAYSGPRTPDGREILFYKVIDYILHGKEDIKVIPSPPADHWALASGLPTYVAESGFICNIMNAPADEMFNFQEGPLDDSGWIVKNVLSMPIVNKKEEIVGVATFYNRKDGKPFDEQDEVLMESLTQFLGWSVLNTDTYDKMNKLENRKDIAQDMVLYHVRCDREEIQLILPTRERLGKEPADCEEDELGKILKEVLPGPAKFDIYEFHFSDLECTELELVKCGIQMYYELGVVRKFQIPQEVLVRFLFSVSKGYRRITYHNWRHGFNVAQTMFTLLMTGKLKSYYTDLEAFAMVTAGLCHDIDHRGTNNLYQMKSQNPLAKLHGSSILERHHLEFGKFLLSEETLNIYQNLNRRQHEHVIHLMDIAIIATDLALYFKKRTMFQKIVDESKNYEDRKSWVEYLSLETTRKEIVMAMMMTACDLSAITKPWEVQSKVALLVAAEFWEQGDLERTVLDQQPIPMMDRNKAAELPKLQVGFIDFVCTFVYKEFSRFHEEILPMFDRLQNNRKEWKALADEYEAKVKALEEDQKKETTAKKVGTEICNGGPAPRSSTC
The series is described as follows: PDE6 enzyme assay. Type of series: biochemical.

pEC50, pIC50: −log10 of the molar value. ≈ marks a conversion by molar mass, not a printed value.

PDE7 purified from Hut78 human T cells, sequence (Q13946 whole entry): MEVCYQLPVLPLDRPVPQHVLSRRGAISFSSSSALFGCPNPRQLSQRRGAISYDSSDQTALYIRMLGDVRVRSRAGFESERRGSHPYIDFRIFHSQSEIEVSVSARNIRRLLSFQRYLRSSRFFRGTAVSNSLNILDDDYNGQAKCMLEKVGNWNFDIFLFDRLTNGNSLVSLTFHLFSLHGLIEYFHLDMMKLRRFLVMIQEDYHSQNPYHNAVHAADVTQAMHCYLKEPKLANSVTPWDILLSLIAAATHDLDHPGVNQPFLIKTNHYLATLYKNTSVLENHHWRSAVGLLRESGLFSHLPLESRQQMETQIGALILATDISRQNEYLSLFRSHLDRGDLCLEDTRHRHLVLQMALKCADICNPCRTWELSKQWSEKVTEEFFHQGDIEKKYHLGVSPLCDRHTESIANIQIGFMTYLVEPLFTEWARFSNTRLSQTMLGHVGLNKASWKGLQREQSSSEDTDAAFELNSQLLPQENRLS

The term pIC50 denotes the IC50 on a negative log10 scale, so that one unit is a factor of ten. The pEC50 is the EC50 on a negative log10 scale, so that one unit is a factor of ten. A word on the solubility: it is how much of the substance goes into solution per volume. Regarding `CCOc1cc(C(CS(C)(=O)=O)N2C(=O)c3cccc(NC(C)=O)c3C2=O)ccc1OC` (racemic) [Racemic Compound, 2-[1-(3-Ethoxy-4-methoxyphenyl)-2-methylsulfonylethyl]-4-acetylaminoisoindoline-1,3-dione], in series [1], the “PDE Specificity Ratio PDE4/PDE5” value is reported as >12000 fold. Moreover, the inhibition at 10 µM amounted to 3% in series [1] (read-out: PDE5 (% inhib at 10 µM)), 19% in series [7] (read-out: PDE2(% inhib at 10 µM)) and 21% in series [9] (read-out: PDE3 (% inhib at 10 µM)). The figures for the negative logarithm of the IC50 (pIC50) in series [2], in [5] and in [6] (10 nM cAMP) were 7.09, 7.70 and 4.66, respectively. In addition, the negative-log EC50 (pEC50) in series [3] was 4.90; in [10], 5.51. The solubility in series [4] worked out at 3.4 µg/mL (≈ 7.38 µM). Moreover, in [6] (from above data), the “PDE Specificity Ratio PDE7 IC50/PDE4 IC50” value was 270 fold. The “PDE Specificity Ratio PDE4/PDE2” value in [7] is >800 fold. For the same molecule, the “PDE1 (% inhib at 10 µM)” value in series [8] came to 9%. In addition, in series [8], the “PDE Specificity Ratio PDE4/PDE1” value is >2700 fold. In [9], the “PDE Specificity Ratio PDE4/PDE3” value is reported as >670 fold.
Consider `CCOc1cc([C@H](CS(C)(=O)=O)N2C(=O)c3cccc(NC(C)=O)c3C2=O)ccc1OC` [Compound B], for which, in series [1] (10 µM), the “PDE5 (% inhib at 10 µM)” value was -9%. Further, in series [1], the “PDE Specificity Ratio PDE4/PDE5” value is reported as >39000 fold. In series [11] (10 µM), the “PDE6 (% inhib at 10 µM)” value is 10%. Moreover, in series [11] (from above data), the “PDE Specificity Ratio PDE4/PDE6” value is listed as >250 fold. The pIC50 in [2] is 6.21. The “PDE2(% inhib at 10 µM)” value in [7] (10 µM) is 10%. Also, the “PDE Specificity Ratio PDE4/PDE2” value in [7] was >260 fold. Besides, in series [8], the “PDE1 (% inhib at 10 µM)” value is on record as 27% and the “PDE Specificity Ratio PDE4/PDE1” value is on record as >50 fold. Further, the “PDE3 (% inhib at 10 µM)” value in series [9] (10 µM) worked out at 31%. Moreover, in [9], the “PDE Specificity Ratio PDE4/PDE3” value was >45 fold.
